The text below walks through data of US7129381B2, “Glucopyranosyloxybenzylbenzene derivatives, medicinal compositions containing the same and intermediates in the production thereof” (Kissei Pharmaceutical Co., Ltd., priority 2000, dated 2006).

This data set deals with ICR mice. Kind of data set: Acute toxicity test. The data set is classed as in vivo. The following applies: 300 mg/kg subcutaneous, male ICR mice, 5 animals, observation for 24 hours. The procedure: A mixture (saline:polyethylene glycol 400:ethanol =5:4:1) was added to a test compound to prepare 30 mg/mL solution. As experimental animals, 5 week old male ICR mice (CLEA JAPAN, INC. 29–35 g, 5 animals in each group), which were fasted for 4 hours, were used. The above solution was subcutaneously administered at a dose of 10 mL/kg (300 mg/kg) to the above experimental animals and then observation for 24 hours was performed.

`COc1ccc(Cc2c(C)cc(C)cc2O[C@@H]2O[C@H](CO)[C@@H](O)[C@H](O)[C@H]2O)cc1` [Example 37, 2-(4-Methoxybenzyl)-3,5-dimethylphenyl β-D-glucopyranoside]: the Death number was 0/5.
